Test results reported in PMC5618414, “FVIIa-sTF and Thrombin Inhibitory Activities of Compounds Isolated from Microcystis aeruginosa K-139” (Marine Drugs, 2017).
Several values for one entry are separate records, joined by “and”; a condition that tells them apart may be missing. Equal values may be shown once. Read-outs that look alike come from different tables or passages of the source.

Tests used:
fVIIa-sTF = fVIIa-sTF (Homo sapiens, UniProt P08709); assay: fVIIa-sTF inhibitory assay; type: biochemical; settings: for EC50: 95% confidence using GraphPad Prism 7; for Thrombin/FVIIa-sTF EC50 Ratio: thrombin EC50 divided by fVIIa-sTF EC50
Method: The compounds isolated from M. aeruginosa K139 were subjected to fVIIa-sTF and thrombin assays at 10 μg/mL and 100 μg/mL. […] Our microviridin B was isolated from the strain of M. aeruginosa K139. […] We used ethanol or water as negative controls.
The fVIIa-sTF and thrombin assays have been previously described in previous papers. […] A 1 mg/mL EtOH solution was prepared and independently diluted to make 750, 500, 250, 100, 75, 50, 25, 10, 5.0, 2.5, and 1.0 μg/mL. The same experimental procedure was done in all fVIIa-sTF and thrombin assays as previously described. A 20-μL solution was added in each well, in replicate, to make a final concentration of 100, 75, 50, 250, 100, 75, 50, 25, 10, 5.0, 2.5, and 1.0 μg/mL.

thrombin [1] = target: T1, thrombin (Homo sapiens, UniProt P00734); assay: thrombin inhibitory assay; type: biochemical; settings: for thrombin inhibition (in words): at 10 μg/mL and 100 μg/mL (low and high doses)
T1 construct: subjected to fVIIa-sTF and thrombin assays
Method: The compounds isolated from M. aeruginosa K139 were subjected to fVIIa-sTF and thrombin assays at 10 μg/mL and 100 μg/mL. […] The micropeptin K139 gave a favorable fVIIa-sTF activity at 10 μg/mL and 100 μg/mL with inhibitory activity greater than 50% and 85%, respectively. […] The EC50 of each compound was computed by GraphPad Prism 7 [34], with 95% confidence. […] A difference in activity for the same compound may be attributed to the different cyanobacterial strains used in the study. Our microviridin B was isolated from the strain of M. aeruginosa K139. Okino’s group isolated the compound from the NIES-102 cyanobacterial strain. […]. […] We used ethanol or water as negative controls.
The fVIIa-sTF and thrombin assays have been previously described in previous papers. The half maximal effective concentration (EC50) compounds isolated from M. aeruginosa K139 was done in three plates, with two replicates in each of plate. A 1 mg/mL EtOH solution was prepared and independently diluted to make 750, 500, 250, 100, 75, 50, 25, 10, 5.0, 2.5, and 1.0 μg/mL. The same experimental procedure was done in all fVIIa-sTF and thrombin assays as previously described. A 20-μL solution was added in each well, in replicate, to make a final concentration of 100, 75, 50, 250, 100, 75, 50, 25, 10, 5.0, 2.5, and 1.0 μg/mL. The EC50 was calculated from GraphPad Prism 7^© [34], with 95% confidence.

thrombin [2] = target: T1, thrombin; settings: literature, cited from earlier work
chymotrypsin = test system: chymotrypsin; parameters: method as in PMID 19260658; settings: literature; cited from earlier work
[3] = 95% confidence using GraphPad Prism 7, read-out: Thrombin: EC50

Sequence of fVIIa-sTF (P08709 61-212 limits assumed): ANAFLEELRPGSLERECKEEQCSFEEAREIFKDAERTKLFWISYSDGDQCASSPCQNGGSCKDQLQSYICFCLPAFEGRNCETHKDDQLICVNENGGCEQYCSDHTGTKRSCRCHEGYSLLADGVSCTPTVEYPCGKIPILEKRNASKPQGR
Sequence of fVIIa-sTF (P08709 213-466 limits assumed): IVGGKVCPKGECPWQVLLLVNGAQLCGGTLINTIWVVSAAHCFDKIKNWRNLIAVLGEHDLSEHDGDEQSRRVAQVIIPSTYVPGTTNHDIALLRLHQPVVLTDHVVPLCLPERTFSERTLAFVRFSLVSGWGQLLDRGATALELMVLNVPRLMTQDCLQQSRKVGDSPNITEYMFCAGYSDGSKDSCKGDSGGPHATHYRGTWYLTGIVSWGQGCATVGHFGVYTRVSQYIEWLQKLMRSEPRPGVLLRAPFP
Sequence of fVIIa-sTF (P13726 33-251 partner limits assumed): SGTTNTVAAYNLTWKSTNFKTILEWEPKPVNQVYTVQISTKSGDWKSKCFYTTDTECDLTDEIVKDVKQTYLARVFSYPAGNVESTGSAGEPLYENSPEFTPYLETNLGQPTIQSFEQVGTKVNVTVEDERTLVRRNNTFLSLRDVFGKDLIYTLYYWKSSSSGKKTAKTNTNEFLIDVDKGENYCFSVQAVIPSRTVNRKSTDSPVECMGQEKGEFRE

CC[C@H](C)[C@@H]1NC(=O)[C@H](Cc2ccc(O)cc2)N(C)C(=O)[C@H](CC(C)C)N2C(=O)[C@H](CC[C@H]2O)NC(=O)[C@H](Cc2ccc(O)cc2)NC(=O)[C@@H](NC(=O)[C@H](CCC(N)=O)NC(=O)[C@H](O)Cc2ccc(O)cc2)[C@@H](C)OC1=O [917S-A]
fVIIa-sTF inhibitory activity (in words) (fVIIa-sTF; at 100 μg/mL): negative inhibitory activity

CCC(C)C1NC(=O)C(Cc2ccc(O)cc2)N(C)C(=O)C(CC(C)C)N2C(=O)C(CCC2O)NC(=O)C(CC2C=CC(O)CC2)NC(=O)C(NC(=O)C(CCC(N)=O)NC(=O)C(O)Cc2ccc(O)cc2)C(C)OC1=O (stereo not drawn) [917S-B]
fVIIa-sTF inhibitory activity (in words) (fVIIa-sTF; at 100 μg/mL): negative inhibitory activity

CC[C@H](C)[C@@H]1NC(=O)[C@H](Cc2ccc(O)cc2)N(C)C(=O)[C@H](CC(C)C)N2C(=O)[C@H](CC[C@H]2O)NC(=O)[C@H](CC(C)C)NC(=O)[C@@H](NC(=O)[C@H](CCC(N)=O)NC(=O)[C@H](O)Cc2ccc(O)cc2)[C@@H](C)OC1=O [917S-C]
fVIIa-sTF inhibitory activity (in words) (fVIIa-sTF; at 100 μg/mL): negative inhibitory activity

N=C(N)c1ccc(CS(=O)(=O)F)cc1 [APMSF, 4-amidinophenylmethanesulfonylfluoride]
EC50 (thrombin [1]): 2.1 µM

CC(C)CC(NC(=O)C(O)Cc1ccc(O)cc1)C(=O)N1C(C(=O)NC2CCCN(C(=N)N)C2O)CC2CCC(O)CC21 [Aeruginosin K139, L-Hpla-L-Leu-L-Choi-L-Argal]
EC50 (fVIIa-sTF): 166 µM and ~166 µM | fVIIa-sTF inhibitory activity (in words) (fVIIa-sTF; at 100 μg/mL): active | Thrombin/FVIIa-sTF EC50 Ratio (fVIIa-sTF): 0.004 | EC50 (thrombin [1]; [3]): 0.66 µM | thrombin inhibition (in words) (thrombin [1]): inhibited thrombin

CC(=O)N[C@@H](CC(C)C)C(=O)N[C@@H](CC(C)C)C(=O)N[C@H](C=O)CCCNC(=N)N [Leupeptin]
EC50 (fVIIa-sTF): 14 µM | Thrombin/FVIIa-sTF EC50 Ratio (fVIIa-sTF): 1.31 | EC50 (thrombin [1]; [3]): 18.3 µM

CCCCCC(=O)N[C@@H](CC(=O)O)C(=O)N[C@@H]1C(=O)N[C@@H](CCCNC(=N)N)C(=O)N[C@H]2CC[C@@H](O)N(C2=O)[C@@H]([C@@H](C)CC)C(=O)N(C)[C@@H](Cc2ccc(O)cc2)C(=O)N[C@@H]([C@@H](C)CC)C(=O)O[C@@H]1C [Micropeptin K139]
EC50 (fVIIa-sTF): 10.6 µM | inhibition at 10 µg/mL (fVIIa-sTF; at 10 μg/mL): > 50% | inhibition at 100 µg/mL (fVIIa-sTF; at 100 μg/mL): > 85% | Thrombin/FVIIa-sTF EC50 Ratio (fVIIa-sTF): 2.54 | Thrombin/FVIIa-sTF EC50 Ratio (fVIIa-sTF; listed as micropeptin K139): greater than one | EC50 (thrombin [1]; [3]): 26.9 µM | thrombin inhibition (in words) (thrombin [1]): inhibited thrombin

CCCCCCCC(=O)N[C@@H](CCC(=O)O)C(=O)N[C@@H]1C(=O)N[C@@H](CCCCN)C(=O)N[C@H]2CC[C@@H](O)N(C2=O)[C@@H](CC(C)C)C(=O)N(C)[C@@H](Cc2ccc(O)cc2)C(=O)N[C@@H](C(C)C)C(=O)O[C@@H]1C [micropeptin A]
thrombin inhibitory assay (in words) (thrombin [2]): inactive | thrombin inhibitory assay (in words) (thrombin [2]; listed as Micropeptin A): does not inhibit thrombin

CCCCCC(=O)N[C@@H](CCC(=O)O)C(=O)N[C@@H]1C(=O)N[C@@H](Cc2ccc(O)cc2)C(=O)N[C@H]2CC[C@@H](O)N(C2=O)[C@@H](Cc2ccccc2)C(=O)N(C)[C@@H](Cc2ccc(O)cc2)C(=O)N[C@@H](C(C)C)C(=O)O[C@@H]1C [micropeptin C]
chymotrypsin EC50 (chymotrypsin): 1.1 µg/mL

CCCCCCCC(=O)N[C@@H](CCC(=O)O)C(=O)N[C@@H]1C(=O)N[C@@H](Cc2ccc(O)cc2)C(=O)N[C@H]2CC[C@@H](O)N(C2=O)[C@@H](Cc2ccccc2)C(=O)N(C)[C@@H](Cc2ccc(O)cc2)C(=O)N[C@@H](C(C)C)C(=O)O[C@@H]1C [micropeptin D]
chymotrypsin EC50 (chymotrypsin): 1.2 µg/mL

CCCCCC(=O)N[C@@H](CCC(=O)O)C(=O)N[C@@H]1C(=O)N[C@@H](Cc2ccc(O)cc2)C(=O)N[C@H]2CC[C@@H](O)N(C2=O)[C@@H](CC(C)C)C(=O)N(C)[C@@H](Cc2ccc(O)cc2)C(=O)N[C@@H](C(C)C)C(=O)O[C@@H]1C [micropeptin E]
chymotrypsin EC50 (chymotrypsin): 1.0 µg/mL

CCCCCCCC(=O)N[C@@H](CCC(=O)O)C(=O)N[C@@H]1C(=O)N[C@@H](Cc2ccc(O)cc2)C(=O)N[C@H]2CC[C@@H](O)N(C2=O)[C@@H](CC(C)C)C(=O)N(C)[C@@H](Cc2ccc(O)cc2)C(=O)N[C@@H](C(C)C)C(=O)O[C@@H]1C [micropeptin F]
chymotrypsin EC50 (chymotrypsin): 1.5 µg/mL
